Values of other authors as cited in US6444469B1, “Methods for altering the rate of plant development and plants obtained therefrom” (Yale University, priority 1996, dated 2002).

Tested on: late-flowering strains and mutants of Arabidopsis
Conditions: treatment of seeds; some late-flowering strains and mutants

Which Effect on flowering does the source give for `Nc1ncn([C@@H]2O[C@H](CO)[C@@H](O)[C@H]2O)c(=O)n1` [Line 5-AzaC, 5-azacytidine] here?
Its Effect on flowering is “early flowering”.
